Results from paper PMC12457078, “Inhibition of soluble epoxide hydrolase in endotoxin induced pig lung injury” (Frontiers in Pharmacology, 2025).
Where “and” joins values, the source holds several entries; their conditions need not be identical. Equal entries are not always repeated. Entries after “also recorded” stand apart in the source; their conditions may differ. Where two headings read alike, the source gives them in different places.

Tests used:
[1] = liver microsomal assay (metabolic stability); assay type: in vitro ADME, pig
Procedure: To further characterize the inhibitors with regard to suitability for administration in pigs, a microsomal assay was used to determine metabolic stability ([Ackley et al., 2004]) for a subset of eight inhibitors chosen for their potency and availability. Microsomal preparations from pig liver were purchased from XenoTech (Kansas City, KS, US). Microsomes, buffer and NADPH generating system were combined, and then the inhibitor was added. The reaction was stopped after 35 min with ice cold acetonitrile containing internal standard (12-[[(cyclohexylamino)carbonyl]amino]-dodecanoic acid). The amount left of parent inhibitor was determined with LC-MS/MS.

[2] = pharmacokinetic pilot, continuous infusion in one animal; assay type: in vivo, pig
Procedure: (§1) One animal served as a pharmacokinetic pilot, with arterial and venous catheters placed in a cut-down in the neck. The remaining 21 animals were used for the randomized study (Figure 1). After intubation and start of mechanical ventilation, a second auricular vein cannula was placed and infusion of either AEPU or placebo according to randomization was started. After 2 h of infusion of AEPU or placebo, an infusion of LPS was started. A bolus of 0.1 mg/kg was administered during 30 min after which the infusion rate was adjusted to 0.01 mg/kg/h. During the time between start of AEPU or placebo and LPS infusion, neck dissection was performed, exposing the v jugularis externa and carotid artery. A pulmonary artery introducer and an arterial cannula were placed in vein and artery respectively, and a pulmonary artery catheter introduced through the introducer and the tip placed in the correct position in the pulmonary artery placement guided by continuous invasive pressure monitoring or, when difficult, assisted by fluoroscopy. All surgical procedures were performed under sterile conditions.
(§2) AEPU was synthesized according to Kim et al. ([Kim et al., 2007]), delivered in 60 mg vials and dissolved in 30 mL pure ethanol as a co-solvent, of which either 20 mL was added to 980 mL of sodium chloride 9 mg/mL or 8 mL–392 mL sodium chloride, creating a solution of 0.04 mg/mL AEPU and 2% ethanol. The placebo infusion was prepared by adding either 20 mL of pure ethanol to 980 mL of sodium chloride 9 mg/mL or 8 mL of pure ethanol to 392 mL sodium chloride, creating a 2% ethanol solution. Each animal received an infusion of either 0.1 mg/kg/h AEPU or the corresponding volume of placebo solution.
Infusion of AEPU at 0.1 mg/kg/h produced a progressive rise in blood concentration reaching steady state of approximately 200 nM at 120 min, maintained with only minor variations until the termination of infusion at 255 min. The elimination of AEPU after termination of infusion was rapid, showing complete elimination within 15 min (Figure 2).

[3] = AEPU blood concentrations in LPS-treated pigs; assay type: in vivo, pig; settings: for AEPU conc, In 10uL blood / AEPU conc, In analyte: listed as AEPU
Procedure: as §1, §2
All animals were monitored with pulse oximetry, heart rate, ECG, systemic arterial blood pressure (ABP), pulmonary arterial pressure (PAP), central venous pressure (CVP) temperature, tidal volumes, respiratory rate and end tidal carbon dioxide. At baseline, and at 3 h, 6 h and at the end of the experiment, pulmonary capillary wedge pressure (PCWP) was measured together with arterial and venous blood gas analyses, as well as cardiac output calculations. Routine chemistry, including creatinine, bilirubin, glucose, electrolytes were collected at baseline and at the end of the experiment (Vetscan VS2®, Abaxis, Griesheim, Germany). Blood samples for measurement of AEPU plasma concentrations, as well as oxylipins (i.e., EpETrEs and their DiHETrE corresponding diols as well as related compounds with other polyunsaturated fatty acid precursors), were collected at baseline, 6 h and at the end of the experiment. Oxylipin analysis was performed according to a previously published protocol ([Gouveia-Figueira and Nording, 2015]).

lung injury = assay: histological evaluation of lung biopsies (four graded scale 0-3); assay type: in vivo, pig
Description: After euthanasia, the chest was opened and two approximately 2 × 1 × 1 cm pieces of lung tissue was cut from the left lung 3 cm from the hilus. One piece was immediately put in formaldehyde solution for later routine preparation for histological evaluation in hematoxylin and eosin staining. A pathologist, blinded for treatment group, evaluated the severity of lung injury in specimens on a four graded scale: 0 = no lung injury, 1 = mild lung injury, 2 = moderate lung injury and 3 = severe lung injury.

[4] = pharmacokinetic pilot, continuous infusion in one animal; assay type: in vivo; settings: pig, whole blood, intravenous, 0.1 mg/kg/h, time 240 minutes (STOP INFUSION), read-out: Conc in blood 950

CCOCCOCCOCCCCCNC(=O)NC12CC3CC(CC(C3)C1)C2 [Compound 950]
metabolic stability [1]: low | time to complete elimination after termination of infusion ([2]; infusion 0.1 mg/kg/h): ≤ 15 min | concentration at 0 min ([2]; pig, whole blood, intravenous, 0.1 mg/kg/h, time 0 minutes, read-out: Conc in blood 950): 11 ng/mL | concentration at 5 min ([2]; pig, whole blood, intravenous, 0.1 mg/kg/h, time 5 minutes, read-out: Conc in blood 950): 45 ng/mL | concentration at 35 min ([2]; pig, whole blood, intravenous, 0.1 mg/kg/h, time 35 minutes, read-out: Conc in blood 950): 116 ng/mL | concentration at 65 min ([2]; pig, whole blood, intravenous, 0.1 mg/kg/h, time 65 minutes, read-out: Conc in blood 950): 174 ng/mL | concentration at 121 min ([2]; pig, whole blood, intravenous, 0.1 mg/kg/h, time 121 minutes, read-out: Conc in blood 950): 199 ng/mL | concentration at 185 min ([2]; pig, whole blood, intravenous, 0.1 mg/kg/h, time 185 minutes, read-out: Conc in blood 950): 202 ng/mL | concentration at 255 min ([2]; pig, whole blood, intravenous, 0.1 mg/kg/h, time 255 minutes, read-out: Conc in blood 950): 224 ng/mL | concentration at 270 min ([2]; pig, whole blood, intravenous, 0.1 mg/kg/h, time 270 minutes, read-out: Conc in blood 950): 0.189 ng/mL | concentration at 285 min ([2]; pig, whole blood, intravenous, 0.1 mg/kg/h, time 285 minutes, read-out: Conc in blood 950): 0.189 ng/mL | concentration at 300 min ([2]; pig, whole blood, intravenous, 0.1 mg/kg/h, time 300 minutes, read-out: Conc in blood 950): 0.189 ng/mL | concentration at 330 min ([2]; pig, whole blood, intravenous, 0.1 mg/kg/h, time 330 minutes, read-out: Conc in blood 950): 0.189 ng/mL | concentration at 120 min ([2]; pig, whole blood, intravenous, infusion 0.1 mg/kg/h, reached at 120 min, read-out: steady state blood concentration): ~200 nM | 950 in blood spots ([3]; 6 h, individual pigs): 61 nM and 53 nM and 118 nM and 49 nM and 77 nM and 123 nM and 162 nM and 99 nM and 66 nM | 950 in blood spots ([3]; 9 h, individual pigs): 163 nM and 42 nM and 48 nM and 79 nM and 172 nM and 149 nM | concentration at 9 h ([3]; LPS start, average of pigs, read-out: 950 in blood spots, Average): 62 nM | 950 in blood spots ([3]; LPS start, individual pigs): 51 nM and 47 nM and 84 nM and 48 nM and 63 nM and 96 nM and 53 nM and 65 nM and 50 nM | concentration at 6 h ([3]; pig, whole blood (blood spots), intravenous, 0.1 mg/kg/h, 6 h, average of pigs, read-out: 950 in blood spots, Average): 90 nM | concentration at 9 h ([3]; pig, whole blood (blood spots), intravenous, 0.1 mg/kg/h, 9 h, average of pigs, read-out: 950 in blood spots, Average): 109 nM | AEPU conc, In 10uL blood ([3]; sample _6, individual pigs): 64.4 ng/mL and 39.4 ng/mL and 26.3 ng/mL and 24.4 ng/mL and 20.9 ng/mL and 46.8 ng/mL and 19.5 ng/mL and 30.4 ng/mL and 48.8 ng/mL | AEPU conc, In analyte ([3]; sample _6, individual pigs): 12.9 ng/mL and 7.9 ng/mL and 5.3 ng/mL and 4.9 ng/mL and 4.2 ng/mL and 9.4 ng/mL and 3.9 ng/mL and 6.1 ng/mL and 9.8 ng/mL | AEPU conc, In 10uL blood ([3]; sample _12, individual pigs): 68.1 ng/mL and 58.9 ng/mL and 0.0 ng/mL and 64.5 ng/mL and 16.7 ng/mL and 19.0 ng/mL and 31.2 ng/mL | AEPU conc, In analyte ([3]; sample _12, individual pigs): 13.6 ng/mL and 11.8 ng/mL and 12.9 ng/mL and 3.3 ng/mL and 3.8 ng/mL and 6.2 ng/mL | AEPU conc, In 10uL blood ([3]; sample _BL, individual pigs): 21.0 ng/mL and 25.7 ng/mL and 19.7 ng/mL and 20.3 ng/mL and 18.6 ng/mL and 33.4 ng/mL and 19.2 ng/mL and 25.1 ng/mL and 38.0 ng/mL | AEPU conc, In analyte ([3]; sample _BL, individual pigs): 4.2 ng/mL and 5.1 ng/mL and 3.9 ng/mL and 4.1 ng/mL and 3.7 ng/mL and 6.7 ng/mL and 3.8 ng/mL and 5.0 ng/mL and 7.6 ng/mL | lungskada (lung injury; histology score, per case, listed as sEH-i 950): 3 and 2 | Lung injury (lung injury; histology, grade in words, per case, listed as sEH-i 950): Severe; also recorded: Moderate | Histological injury score (lung injury; scale 0-3, AEPU group): 2.7 (2–3) | concentration at 240 min [4]: 199 ng/mL
